Source: the supplement of paper PMC10307832

Columns and labels:
Test in all cases: relative viability (nuclei count vs DMSO), 5 days (fraction); higher = more cells survive
NCI-H2023 = test system: NCI-H2023
Procedure, shortened: (§1)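 Lung cancer cell lines were seeded in 1536-well plates and dosed by pin tool the next day, with either a single drug or a fixed anchor-drug dose combined with five library-drug doses (not always all listed) spaced in √10 steps. Five days later, one step fixed the cells and stained their nuclei (final 0.05% Triton X-100, 1% formaldehyde, 1 ug/ml Hoechst), and nuclei were counted on 4× images. Relative viability is the nuclei count in treated wells divided by the count in vehicle wells, and each value is the median of duplicate plates.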

NCI-H358 = test system: NCI-H358
Procedure, shortened: as §1

NCI-H1975 = test system: NCI-H1975
Procedure, shortened: as §1

COR-L 105 = test system: COR-L 105
Procedure, shortened: as §1

NCI-H1944 = test system: NCI-H1944
Procedure, shortened: as §1

LOU-NH91 = test system: LOU-NH91
Procedure, shortened: as §1

NCI-H1993 = test system: NCI-H1993
Procedure, shortened: as §1

LXF-289 = test system: LXF-289
Procedure, shortened: as §1

NCI-H1915 = test system: NCI-H1915
Procedure, shortened: as §1

HCC-44 = test system: HCC-44
Procedure, shortened: as §1

LCLC-103H = test system: LCLC-103H
Procedure, shortened: as §1

SW 900 = test system: SW 900
Procedure, shortened: as §1

NCI-H1793 = test system: NCI-H1793
Procedure, shortened: as §1

NCI-H2170 = test system: NCI-H2170
Procedure, shortened: as §1

NCI-H520 = test system: NCI-H520
Procedure, shortened: as §1

NCI-H1792 = test system: NCI-H1792
Procedure, shortened: as §1

HCC-827 = test system: HCC-827
Procedure, shortened: as §1

A-427 = test system: A-427
Procedure, shortened: as §1

H3255 = test system: H3255
Procedure, shortened: as §1

SK-MES-1 = test system: SK-MES-1
Procedure, shortened: as §1

NCI-H522 = test system: NCI-H522
Procedure, shortened: as §1

SW 1573 = test system: SW 1573
Procedure, shortened: as §1

NCI-H2087 = test system: NCI-H2087
Procedure, shortened: as §1

**Q.** What does the source list for `Cc1cn(-c2cc(NC(=O)c3ccc(C)c(Nc4nccc(-c5cccnc5)n4)c3)cc(C(F)(F)F)c2)cn1` [Nilotinib] + CC(=O)Nc1cccc(-n2c(=O)n(C3CC3)c(=O)c3c(Nc4ccc(I)cc4F)n(C)c(=O)c(C)c32)c1 [Trametinib] (partner 0.02 µM)?
**A.** relative viability (NCI-H2023; first compound 0.001 µM): 0.485; relative viability (NCI-H2023; first compound 0.003162 µM): 0.619; relative viability (NCI-H2023; first compound 0.01 µM): 0.508; relative viability (NCI-H2023; first compound 0.03162 µM): 0.329; relative viability (NCI-H2023; first compound 0.1 µM): 0.433; relative viability (NCI-H358; first compound 0.001 µM): 0.134; relative viability (NCI-H358; first compound 0.003162 µM): 0.143; relative viability (NCI-H358; first compound 0.01 µM): 0.13; relative viability (NCI-H358; first compound 0.03162 µM): 0.116; relative viability (NCI-H358; first compound 0.1 µM): 0.128; relative viability (NCI-H1975; first compound 0.001 µM): 0.338; relative viability (NCI-H1975; first compound 0.003162 µM): 0.338; relative viability (NCI-H1975; first compound 0.01 µM): 0.308; relative viability (NCI-H1975; first compound 0.03162 µM): 0.241; relative viability (NCI-H1975; first compound 0.1 µM): 0.234; relative viability (COR-L 105; first compound 0.001 µM): 0.439; relative viability (COR-L 105; first compound 0.003162 µM): 0.475; relative viability (COR-L 105; first compound 0.01 µM): 0.533; relative viability (COR-L 105; first compound 0.03162 µM): 0.396; relative viability (COR-L 105; first compound 0.1 µM): 0.443; relative viability (NCI-H1944; first compound 0.001 µM): 0.378; relative viability (NCI-H1944; first compound 0.003162 µM): 0.415; relative viability (NCI-H1944; first compound 0.01 µM): 0.39; relative viability (NCI-H1944; first compound 0.03162 µM): 0.383; relative viability (NCI-H1944; first compound 0.1 µM): 0.322; relative viability (LOU-NH91; first compound 0.001 µM): 0.799; relative viability (LOU-NH91; first compound 0.003162 µM): 0.818; relative viability (LOU-NH91; first compound 0.01 µM): 0.846; relative viability (LOU-NH91; first compound 0.03162 µM): 0.77; relative viability (LOU-NH91; first compound 0.1 µM): 0.765; relative viability (NCI-H1993; first compound 0.001 µM): 0.47; relative viability (NCI-H1993; first compound 0.003162 µM): 0.522; relative viability (NCI-H1993; first compound 0.01 µM): 0.477; relative viability (NCI-H1993; first compound 0.03162 µM): 0.507; relative viability (NCI-H1993; first compound 0.1 µM): 0.494; relative viability (LXF-289; first compound 0.001 µM): 0.686; relative viability (LXF-289; first compound 0.003162 µM): 0.699; relative viability (LXF-289; first compound 0.01 µM): 0.701; relative viability (LXF-289; first compound 0.03162 µM): 0.577; relative viability (LXF-289; first compound 0.1 µM): 0.466; relative viability (NCI-H1915; first compound 0.001 µM): 0.237; relative viability (NCI-H1915; first compound 0.003162 µM): 0.283; relative viability (NCI-H1915; first compound 0.01 µM): 0.224; relative viability (NCI-H1915; first compound 0.03162 µM): 0.151; relative viability (NCI-H1915; first compound 0.1 µM): 0.164; relative viability (HCC-44; first compound 0.001 µM): 0.951; relative viability (HCC-44; first compound 0.003162 µM): 1.03; relative viability (HCC-44; first compound 0.01 µM): 1.21; relative viability (HCC-44; first compound 0.1 µM): 0.774; relative viability (LCLC-103H; first compound 0.001 µM): 0.588; relative viability (LCLC-103H; first compound 0.003162 µM): 0.773; relative viability (LCLC-103H; first compound 0.01 µM): 0.75; relative viability (LCLC-103H; first compound 0.03162 µM): 0.579; relative viability (LCLC-103H; first compound 0.1 µM): 0.728; relative viability (SW 900; first compound 0.003162 µM): 0.973; relative viability (SW 900; first compound 0.03162 µM): 0.76; relative viability (SW 900; first compound 0.1 µM): 0.613; relative viability (NCI-H1793; first compound 0.001 µM): 0.403; relative viability (NCI-H1793; first compound 0.003162 µM): 0.396; relative viability (NCI-H1793; first compound 0.01 µM): 0.328; relative viability (NCI-H1793; first compound 0.03162 µM): 0.239; relative viability (NCI-H1793; first compound 0.1 µM): 0.251; relative viability (NCI-H2170; first compound 0.001 µM): 0.816; relative viability (NCI-H2170; first compound 0.003162 µM): 1.23; relative viability (NCI-H2170; first compound 0.01 µM): 1.1; relative viability (NCI-H2170; first compound 0.03162 µM): 0.842; relative viability (NCI-H2170; first compound 0.1 µM): 0.868; relative viability (NCI-H520; first compound 0.001 µM): 0.612; relative viability (NCI-H520; first compound 0.003162 µM): 0.747; relative viability (NCI-H520; first compound 0.01 µM): 0.738; relative viability (NCI-H520; first compound 0.03162 µM): 0.392; relative viability (NCI-H520; first compound 0.1 µM): 0.39; relative viability (NCI-H1792; first compound 0.001 µM): 0.365; relative viability (NCI-H1792; first compound 0.003162 µM): 0.491; relative viability (NCI-H1792; first compound 0.01 µM): 0.446; relative viability (NCI-H1792; first compound 0.03162 µM): 0.077; relative viability (NCI-H1792; first compound 0.1 µM): 0.162; relative viability (HCC-827; first compound 0.001 µM): 0.593; relative viability (HCC-827; first compound 0.003162 µM): 0.523; relative viability (HCC-827; first compound 0.03162 µM): 0.542; relative viability (HCC-827; first compound 0.1 µM): 0.469; relative viability (A-427; first compound 0.001 µM): 0.812; relative viability (A-427; first compound 0.003162 µM): 0.567; relative viability (A-427; first compound 0.01 µM): 0.73; relative viability (A-427; first compound 0.03162 µM): 0.522; relative viability (A-427; first compound 0.1 µM): 0.556; relative viability (H3255; first compound 0.001 µM): 0.617; relative viability (H3255; first compound 0.003162 µM): 0.582; relative viability (H3255; first compound 0.03162 µM): 0.53; relative viability (H3255; first compound 0.1 µM): 0.947; relative viability (SK-MES-1; first compound 0.001 µM): 0.581; relative viability (SK-MES-1; first compound 0.003162 µM): 0.482; relative viability (SK-MES-1; first compound 0.01 µM): 0.492; relative viability (SK-MES-1; first compound 0.03162 µM): 0.437; relative viability (SK-MES-1; first compound 0.1 µM): 0.339; relative viability (NCI-H522; first compound 0.01 µM): 0.627; relative viability (NCI-H522; first compound 0.03162 µM): 0.671; relative viability (NCI-H522; first compound 0.1 µM): 0.596; relative viability (SW 1573; first compound 0.001 µM): 0.487; relative viability (SW 1573; first compound 0.003162 µM): 0.72; relative viability (SW 1573; first compound 0.01 µM): 0.456; relative viability (SW 1573; first compound 0.1 µM): 0.314; relative viability (NCI-H2087; first compound 0.001 µM): 0.189; relative viability (NCI-H2087; first compound 0.003162 µM): 0.322; relative viability (NCI-H2087; first compound 0.01 µM): 0.153; relative viability (NCI-H2087; first compound 0.03162 µM): 0.143; relative viability (NCI-H2087; first compound 0.1 µM): 0.126
